Reference: ChEMBL document CHEMBL1201862, “PubChem BioAssay data set” (2004)
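Protocol summary: plate cells (96-well), add compound at 5 concentrations, incubate 48 h, interpolate endpoints linearly. GI50 is the concentration that inhibits growth by half.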 Active and inactive are the calls of the source. No stated cut-off is given here; in the data, active = GI50 up to about 1.1 µM and inactive = higher.

Assays:
Experiment in all cases: NCI tumour cell line growth inhibition, 48 h
Malme-3M = tested on: Malme-3M
K562 = tested on: K562
SK-MEL-5 = tested on: SK-MEL-5
SNB-75 = tested on: SNB-75
OVCAR-8 = tested on: OVCAR-8
IGROV-1 = tested on: IGROV-1
CCRF-CEM = tested on: CCRF-CEM
NCI-H522 = tested on: NCI-H522
NCI-H460 = tested on: NCI-H460
786-0 = tested on: 786-0
EKVX = tested on: EKVX
UACC-62 = tested on: UACC-62
SF-295 = tested on: SF-295
HT-29 = tested on: HT-29
RPMI-8226 = tested on: RPMI-8226
NCI-H23 = tested on: NCI-H23
UACC-257 = tested on: UACC-257
U-251 = tested on: U-251
OVCAR-3 = tested on: OVCAR-3
HL-60 = tested on: HL-60

Measured: GI50

CCOC(=O)c1cn2c(n1)sc1cc([N+](=O)[O-])ccc12
inactive: Malme-3M > 100 µM | K562 > 100 µM | SK-MEL-5 > 100 µM | SNB-75 58.2 µM | OVCAR-8 > 100 µM | IGROV-1 > 100 µM | CCRF-CEM > 100 µM | NCI-H522 > 100 µM | NCI-H460 > 100 µM | 786-0 43.1 µM | EKVX > 100 µM | UACC-62 > 100 µM | SF-295 37.3 µM | HT-29 86.1 µM | RPMI-8226 > 100 µM | NCI-H23 > 100 µM | UACC-257 > 100 µM | U-251 76 µM | OVCAR-3 > 100 µM

O=P1(O)c2ccccc2CS(=O)(=O)Cc2ccccc21
inactive: K562 > 100 µM | SK-MEL-5 > 100 µM | OVCAR-8 > 100 µM | IGROV-1 > 100 µM | CCRF-CEM > 100 µM | NCI-H522 > 100 µM | NCI-H460 > 100 µM | HL-60 > 100 µM | 786-0 > 100 µM | EKVX > 100 µM | UACC-62 > 100 µM | SF-295 > 100 µM | HT-29 > 100 µM | NCI-H23 > 100 µM | UACC-257 > 100 µM | U-251 > 100 µM | OVCAR-3 > 100 µM

CCCCc1c2cnccc2c(CCCC)c2c1[nH]c1ccccc12
inactive: Malme-3M 11.9 µM | K562 3.54 µM | SNB-75 5.87 µM | OVCAR-8 12.9 µM | IGROV-1 12.4 µM | CCRF-CEM 9.38 µM | NCI-H522 12.4 µM | NCI-H460 15.7 µM | 786-0 10 µM | EKVX 14.6 µM | UACC-62 11.6 µM | SF-295 7.19 µM | HT-29 9.91 µM | RPMI-8226 2.9 µM | NCI-H23 5.33 µM | UACC-257 15.1 µM | U-251 12.8 µM | OVCAR-3 5.26 µM

O=C(N/N=C1\C(=O)Nc2ccc(Br)cc21)/C(O)=C/C(=O)c1ccc(Cl)cc1
inactive: Malme-3M > 100 µM | K562 8.77 µM | SK-MEL-5 57.5 µM | SNB-75 43.8 µM | OVCAR-8 89.3 µM | IGROV-1 75.9 µM | NCI-H522 23.1 µM | NCI-H460 > 100 µM | 786-0 37.7 µM | EKVX 45.8 µM | UACC-62 44.3 µM | SF-295 54 µM | HT-29 > 100 µM | RPMI-8226 19.4 µM | NCI-H23 71.9 µM | UACC-257 > 100 µM | U-251 43.6 µM | OVCAR-3 22.4 µM
